Source: the NIST ThermoML archive (doi:10.1016/j.jct.2012.09.012)

Experiments:
[1] = Liquid, Vibrating tube method
[2] = molar heat capacity at constant pressure; settings: 101 kPa, Liquid, Small sample (50 mg) DSC
[3] = xn = mol fraction of the nth substance listed; settings: Liquid, Vibrating tube method, x2 = 0
[4] = molar heat capacity at constant pressure; xn = mol fraction of the nth substance listed; settings: 101 kPa, Liquid, Small sample (50 mg) DSC, x2 = 0

C=C1CCC2CC1C2(C)C (stereo not drawn) [β-pinene]
mass density [kg/m3], [1]
Settings | 283.15 K | 298.15 K | 313.15 K | 328.15 K | 343.15 K | 358.15 K
20000 kPa | 891.3 | 880.2 | 869.3 | 858.2 | 847.7 | 837
25000 kPa | 894.2 | 883.3 | 872.6 | 861.7 | 851.4 | 840.9
30000 kPa | 897 | 886.3 | 875.7 | 865.2 | 855 | 844.8
35000 kPa | 899.9 | 889.3 | 878.8 | 868.7 | 858.6 | 848.7
40000 kPa | 902.6 | 892.2 | 882 | 872.2 | 862.1 | 852.6

[2]
Settings | molar heat capacity at constant pressure [J/K/mol]
313.16 K | 249.31
318.16 K | 252.03
323.16 K | 254.76
328.22 K | 257.48
333.22 K | 260.21
338.19 K | 262.93
343.18 K | 265.66
348.15 K | 268.38
353.18 K | 271.11
358.15 K | 273.83
363.18 K | 277.92
368.17 K | 280.64
373.21 K | 283.37
378.2 K | 284.73
383.17 K | 287.45
388.2 K | 290.18
393.17 K | 292.9
398.2 K | 295.63
403.19 K | 299.71
408.16 K | 302.44
413.19 K | 303.8
418.19 K | 306.53

C=C1CCC2CC1C2(C)C (stereo not drawn) [β-pinene] + CC1=CC[C@H]2C[C@@H]1C2(C)C
mass density [kg/m3], [3]
Settings | 283.15 K | 298.15 K | 313.15 K | 328.15 K | 343.15 K | 358.15 K
20000 kPa | 891.3 | 880.2 | 869.3 | 858.2 | 847.7 | 837
25000 kPa | 894.2 | 883.3 | 872.6 | 861.7 | 851.4 | 840.9
30000 kPa | 897 | 886.3 | 875.7 | 865.2 | 855 | 844.8
35000 kPa | 899.9 | 889.3 | 878.8 | 868.7 | 858.6 | 848.7
40000 kPa | 902.6 | 892.2 | 882 | 872.2 | 862.1 | 852.6

[4]
Settings | molar heat capacity at constant pressure [J/K/mol]
313.16 K | 249.31
318.16 K | 252.03
323.16 K | 254.76
328.22 K | 257.48
333.22 K | 260.21
338.19 K | 262.93
343.18 K | 265.66
348.15 K | 268.38
353.18 K | 271.11
358.15 K | 273.83
363.18 K | 277.92
368.17 K | 280.64
373.21 K | 283.37
378.2 K | 284.73
383.17 K | 287.45
388.2 K | 290.18
393.17 K | 292.9
398.2 K | 295.63
403.19 K | 299.71
408.16 K | 302.44
413.19 K | 303.8
418.19 K | 306.53

CC1=CC[C@H]2C[C@@H]1C2(C)C [(S)-2-pinene]
mass density [kg/m3], [1]
Settings | 283.15 K | 298.15 K | 313.15 K | 328.15 K | 343.15 K | 358.15 K
20000 kPa | 880 | 868.8 | 858 | 846.7 | 835.9 | 825
25000 kPa | 883.2 | 872.1 | 861.3 | 850.4 | 839.7 | 829.2
30000 kPa | 886.3 | 875.3 | 864.7 | 854 | 843.8 | 833.3
35000 kPa | 889.4 | 878.6 | 867.9 | 857.5 | 847.7 | 837.4
40000 kPa | 892.5 | 881.9 | 871.3 | 861.1 | 851.4 | 841.5

[2]
Settings | molar heat capacity at constant pressure [J/K/mol]
313.16 K | 250.67
318.16 K | 252.03
323.16 K | 256.12
328.22 K | 257.48
333.22 K | 260.21
338.19 K | 264.29
343.18 K | 267.02
348.15 K | 269.74
353.18 K | 272.47
358.15 K | 275.19
363.18 K | 277.92
368.17 K | 279.28
373.21 K | 282
378.2 K | 284.73
383.17 K | 287.45
388.2 K | 291.54
393.17 K | 292.9
398.2 K | 294.27
403.19 K | 296.99
408.16 K | 299.71
413.19 K | 301.08
418.19 K | 303.8
